The subject of experiment [1] is adult MeCP2+/- female mice. Put plainly: Optical imaging of intrinsic signals, ocular dominance plasticity. The class given is in vivo, mouse. As to conditions: monocularly deprived for 4 days, treated concurrently; aged P60 or more. As to the method:
For the survival measurements, the nocturnal activity analysis and the immunoblot analysis, G-2-MePE (synthesised Albany Molecular Research Inc. (Albany, N.Y.) and supplied by Neuren Pharmaceuticals Limited) is administered daily via intra-peritoneal injections (20 mg/kg, vehicle=saline, 0.01% BSA). The treatment starts at PI 5 and is maintained throughout the course of the experiments. For intracellular physiology experiments, the mice are injected daily with G-2-MePE (20 mg/kg body weight, vehicle=saline, 0.01% BSA) for 2 weeks, from P15 to P28-P32 when they are used for acute slice preparation. For optical imaging experiments, mice are injected with G-2-MePE (20 mg/kg body weight, vehicle=saline, 0.01% BSA) daily from the day of the lid suture to the day of imaging.
Adult (>P60) wild type (SVEV or BL6) and MeCP2 (+/−) mutant females (BL6) are used for this experiment. The wild type control group is composed of both wild type littermates of MeCP2+/− females or wild type age matched SVEV females. For monocular deprivation, animals are anesthetized with Avertin (0.016 ml/g) and the eyelids of one eye is sutured for 4 days. […] During the imaging session, the animal is constantly oxygenated, its temperature maintained with a heating blanket and the eyes periodically treated with silicone oil; physiological conditions are constantly monitored. […]

The test system of a further experiment is 17 month old rats. Put plainly: 8-arm radial maze test, spatial working memory. The class given is in vivo, rat. The following applies: for Working Correct Choice WCC8-12 across days: 9-day washout. The source says: Five months after the original experiment the now 17 month old rats were retested for spatial working memory in a radial arm maze.
The apparatus consists of a central platform communicating with 8 identical arms, each with a food cup at the end of the arm
Rats were partially food-deprived for at least 10 days prior to, and throughout the radial maze procedure.
The maze was assembled and positioned so that the experimenter could clearly observe the rats' behavior from a predetermined location. The experimenter numbered the arms of the maze according to their orientation from one to eight in a clock-wise direction.
On day one the doors were inserted into the arms and each rat was confined in the central platform with 20 food pellets for 5 minutes. […] The following day the rats were allowed five minutes to explore the whole maze. All arms were baited with two food pellets in the food cup located at the end of each arm, and one pellet at both the entrance and middle of each arm. This was repeated for at least five, but up to eight days for rats that explored fewer than eight arms in two consecutive sessions. […] At this point it was decided that one of the old rats that had made only one arm entry on eight of the nine days should be excluded from future testing in this procedure. Otherwise all rats were included regardless of the amount of exploring they performed in pre-training.
30 days before the test (five days after pre-training) the 17 Male Wistar month old rats were implanted (under halothane anesthesia) with sub-cutaneous mini-osmotic pumps (Alzet) to dispense drug continuously for 3 weeks. At the completion of the infusion the pumps were removed and the wounds re-sutured (9-day washout allowed).
3. G-2-MePE low dose (2.4 mg/kg/day) n=13
4. G-2-MePE high dose (12.4 mg/kg/day) n=5
Saline and the low dose groups are comprised of all the rats that received those treatments in phase 1 of this experiment (when the rats were 12 months old) regardless of whether they had the one or three week treatment. One rat in each of the saline and high dose groups have been dropped because of skin tumors.
Working memory testing commenced on the ninth day of washout. Rats received 10 daily training sessions over 12 days. The procedure was the same as for pre-training but only the food cups were baited. Rats had 6 minutes to make up to 16 choices by visiting any of the eight arms. A choice was defined as occurring when all four paws were inside an arm. The experimenter recorded the sequence of arm entries with pen and paper, Sessions were terminated after all eight arms had been entered, 16 choices made, or 6 minutes had elapsed. The time taken to enter all eight arms, when this occurred, was recorded.
An arm choice was considered correct when the rat entered an arm not previously visited. […]

Non-standard residues stand in square brackets, D forms with d. Residues, ends and D or L forms follow the SMILES beside them. αMeP = C[C@@]1(C(=O)O)CCCN1

For the compound `C[C@@]1(C(=O)N[C@@H](CCC(=O)O)C(=O)O)CCCN1C(=O)CN` [Example G-2-MePE, Glycyl-L-2-methylprolyl-L-glutamic acid] (H-Gly-[αMeP]-Glu-OH), the OD plasticity entry in experiment [1] was “reduces”. In addition, the “Correct Choice CC8-12” value with 17 month old rats (all groups, 10 days of testing) is “no significant group effect”. Also, the “Working Correct Choice WCC8-12 across days” value is “greatest improvement across days” with 17 month old rats (high dose 12.4 mg/kg/day s.c. 3 weeks) and “very little difference” with 17 month old rats (low dose 2.4 mg/kg/day s.c. 3 weeks, vs saline). The “correct maze choices averaged across days” value in the experiment on 17 month old rats (higher dose, vs vehicle treated rats, p<0.05, FIG. 18B) is “more correct entries”.

(Values after patent US9212204B2, “Treatment of rett syndrome using glycyl-L-2-methylprolyl-L-glutamic acid” (priority 2011, dated 2015).)
